Measurements reported in patent US20060063784A1, “Method of using substituted pyrazolo [1,5-a] pyrimidines” (priority 2004, published 2006).
pIC50: −log10 of the molar value. Like-named read-outs stand apart in the source and are kept apart here.

Assays:
[1] = system: LoVo Colon cell line; experiment: Cytotoxicity assay using LoVo colon cell line, SRB; format: cell-based; settings: read-out: Inhibition of LoVo
Procedure: Cytotoxicity Assay Using LoVo Colon Cell Line: • 1. LoVo Colon cell lines were cultured in RPMI 1640 medium (Gibco/Invitrogen Life Sciences) supplemented with 10% fetal bovine serum (FBS, Gibco) and 50 μg/ml entamicin (Gibco). Cells were maintained at 37° C. under 7% CO2. • 2. Cells were seeded in 96-well microtiter plates (Corning/Costar) in a volume of 0.15 ml of growth medium (4000 cells/well). Plates were incubated at 37° C. overnight (18-24 hours). • 3. Serial dilutions of the test agent were added to each well. Dilutions were prepared in growth medium. One of two dose ranges was used: 5 pM to 20 μM or 170 pg/ml to 10 μg/ml. Cells were incubated with the test compounds for 4 days at 37° C. • 4. Surviving cells were processed using the SRB asay, as described above.
5. The drug concentration that inhibits cell proliferation by 50% relative to untreated controls (IC50) was determined from cytotoxicity curves using the LSW Toolbox graphing application.

[2] = system: 80S14 (p21-deficient) cells; experiment: Cytotoxicity assay using isogenic cell lines: IC50 in 80S14 (p21-deficient) cells, SRB; format: cell-based, human; settings: for pIC50: SRB; for IC50: 80S14, 120 h
How it was run: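 80S14 (p21-deficient) cells seeded at 12,000 cells/well overnight, then exposed 5 days at 37 °C to serial dilutions (5 pM–50 μM or 170 pg/ml–10 μg/ml). TCA-fixed, sulforhodamine B-stained, absorbance at 560 nm; IC50 taken from cytotoxicity curves versus untreated controls.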

[3] = Homo sapiens, 96 h, Cellular activity in LoVo cell, 4 days incubation, SRB
[4] = Homo sapiens, 120 h, 80S14 (p21-deficient) cells, 5 days, class symbols, read-out: IC50 for 80S14
[5] = Homo sapiens, read-out: IC50 for 80S14 (uM)
[6] = Homo sapiens, 96 h, LoVo colon cells, 4 days incubation, SRB
[7] = Homo sapiens, 120 h, 80S14 p21-deficient cells, 5 days incubation, read-out: IC50 for 80SI4
[8] = LoVo colon cells, 4 days incubation, SRB
[9] = 80S14 p21-deficient cells, 5 days incubation, read-out: IC50 for 80SI4

Row | Compound | pIC50 [1, 3] | pIC50 [2, 4] | further results
1 | COc1ccc(-c2cnn3c(-c4cccc(NC(=O)CC(C)C)c4)ccnc23)cc1C=O [Example 484, N-{3-[3-(3-Formyl-4-methoxyphenyl)pyrazolo[1,5-a]pyrimidin-7-yl]phenyl}-3-methylbutanamide] | 4.70 to 6.00 | 5.00 to 6.00 | –
2 | O=C(c1cccs1)c1cnn2c(-c3ccc(Cl)nc3)ccnc12 [Example 373, [7-(6-Chloropyridin-3-yl)pyrazolo[1,5-a]pyrimidin-3-yl](thien-2-yl)methanone] | 4.70 to 6.00 | 4.30 to 5.00 | –
3 | CC(C)CC(=O)Nc1ccc(Cl)c(-c2ccnc3c(C(=O)c4cccs4)cnn23)c1 [Example 339, N-{4-Chloro-3-[3-(thien-2-ylcarbonyl)pyrazolo[1,5-a]pyrimidin-7-yl]phenyl}-3-methylbutanamide] | – | – | pIC50 ([1]; Homo sapiens, LoVo, 96 h): 6.00 to 7.00; IC50 [2, 5]: 1 to 10 µM
4 | O=C(Nc1cccc(-c2ccnc3c(C(=O)c4cccs4)cnn23)c1)NC1CCCCC1 [Example 353, N-Cyclohexyl-N′-{3-[3-(thien-2-ylcarbonyl)pyrazolo[1,5-a]pyrimidin-7-yl]phenyl}urea] | – | > 6.00 | pIC50 ([1]; Cellular activity in LoVo cell, 4 days incubation, SRB): > 7.00
5 | CCCCCNC(=O)Nc1cccc(-c2ccnc3c(C(=O)c4cccs4)cnn23)c1 [Example 165, N-pentyl-N′-{3-[3-(thien-2-ylcarbonyl)pyrazolo[1,5-a]pyrimidin-7-yl]phenyl}urea] | – | – | pIC50 [1, 6]: 6.00 to 7.00; pIC50 [2, 7]: > 6.00
6 | O=C(c1cccs1)c1cnn2c(-c3cccc(-c4nnn(CCN5CCOCC5)n4)c3)ccnc12 [Example 507, (7-{3-[2-(2-Morpholin-4-ylethyl)-2H-tetraazol-5-yl]phenyl}pyrazolo[1,5-a]pyrimidin-3-yl)(thien-2-yl)methanone] | 6.00 to 7.00 | 5.00 to 6.00 | –
7 | CCCCNC(=O)Nc1cccc(-c2cc(C)nc3c(C(=O)c4cccs4)cnn23)c1 [Example 206, N-butyl-N′-{3-[5-methyl-3-(thien-2-ylcarbonyl)pyrazolo[1,5-a]pyrimidin-7-yl]phenyl}urea] | – | – | pIC50 [1, 6]: 6.00 to 7.00; pIC50 [2, 7]: 5.00 to 6.00
8 | O=C(Nc1cccc(-c2ccnc3c(C(=O)c4cccs4)cnn23)c1)OC1CCCCC1 [Example 172, cyclohexyl 3-(3-(thien-2-ylcarbonyl)pyrazolo[1,5-a]pyrimidin-7-yl]phenylcarbamate] | – | – | pIC50 [1, 6]: > 7.00; pIC50 [2, 7]: > 6.00
9 | O=C(Nc1cccc(-c2ccnc3c(C(=O)c4cccs4)cnn23)c1)NC1CCCC1 [Example 162, N-cyclopentyl-N′-{3-[3-(thien-2-ylcarbonyl)pyrazolo[1,5-a]pyrimidin-7-yl]phenyl}urea] | – | – | pIC50 [1, 6]: > 7.00; pIC50 [2, 7]: > 6.00
10 | CCOc1cccc(-c2cnn3c(-c4cccc(NC(=O)CC(C)C)c4)ccnc23)c1 [Example 479, N-{3-[3-(3-Ethoxyphenyl)pyrazolo[1,5-a]pyrimidin-7-yl]phenyl}-3-methylbutanamide] | 4.70 to 6.00 | 4.30 to 5.00 | –
11 | O=C(Nc1cc(-c2ccnc3c(C(=O)c4cccs4)cnn23)ccc1F)c1ccccc1Cl [Example 376, 2-Chloro-N-{2-fluoro-5-[3-(thien-2-ylcarbonyl)pyrazolo[1,5-a]pyrimidin-7-yl]phenyl}benzamide] | > 7.00 | > 6.00 | –
12 | O=C(NCC1CCCO1)Nc1cccc(-c2ccnc3c(C(=O)c4cccs4)cnn23)c1 (centres unmarked) [Example 163, N-(tetrahydrofuran-2-ylmethyl)-N′-{3-[3-(thien-2-ylcarbonyl)pyrazolo[1,5-a]pyrimidin-7-yl]phenyl}urea] | – | – | pIC50 [1, 6]: 6.00 to 7.00; pIC50 [2, 7]: > 6.00
13 | O=C(Nc1cccc(-c2ccnc3c(C(=O)c4cccs4)cnn23)c1)OCCCl [Example 22] | – | – | pIC50 [1, 8]: > 7.00; pIC50 [2, 9]: > 6.00
14 | Cc1cc(-c2cccc(NC(=O)OC(C)C)c2)n2ncc(C(=O)c3cccs3)c2n1 [Example 197, isopropyl 3-[5-methyl-3-(thien-2-ylcarbonyl)pyrazolo[1,5-a]pyrimidin-7-yl]phenylcarbamate] | – | – | pIC50 [1, 6]: > 7.00; pIC50 [2, 7]: > 6.00
15 | CC(C)CC(=O)Nc1cc(-c2ccnc3c(C(=O)c4cccs4)cnn23)ccc1Cl [Example 313, N-{2-Chloro-5-[3-(2-thienylcarbonyl)pyrazolo[1,5-a]pyrimidin-7-yl]phenyl}-3-Methylbutanamide] | – | – | pIC50 ([1]; Homo sapiens, LoVo, 96 h): > 7.00; IC50 [2, 5]: < 1 µM
16 | O=C(Cc1ccncc1)Nc1cccc(-c2ccnc3c(C(=O)c4cccs4)cnn23)c1 [Example 427, 2-Pyridin-4-yl-N-{3-[3-(thien-2-ylcarbonyl)pyrazolo[1,5-a]pyrimidin-7-yl]phenyl}acetamide] | 4.70 to 6.00 | > 6.00 | –

Row | Compound | pIC50 [1, 3] | pIC50 [2, 4] | further results
17 | O=C(Nc1cccc(-c2ccnc3c(C(=O)c4cccs4)cnn23)c1)OCC1CCC1 [Example 174, cyclobutylmethyl 3-[3-(thien-2-ylcarbonyl)pyrazolo[1,5-a]pyrimidin-7-yl]phenylcarbamate] | – | – | pIC50 [1, 6]: > 7.00; pIC50 [2, 7]: > 6.00
18 | CC(C)CCC(=O)Nc1cccc(-c2ccnc3c(C(=O)c4cccs4)cnn23)c1 [Example 56, 4-methyl-N-{3-[3-(thien-2-ylcarbonyl)pyrazolo[1,5-a]pyrimidin-7-yl]phenyl}pentanamide] | – | – | pIC50 ([1]; Homo sapiens, LoVo, 96 h): > 7.00; IC50 ([2]; Homo sapiens, read-out: IC50 for 80SI4 (uM)): < 1 µM
19 | N-{3-[6-methyl-3-(thien-2-ylcarbonyl)pyrazolo[1,5-a]pyrimidin-7-yl]phenyl}cycopropanecarboxamide [Example 217] | – | – | pIC50 [1, 8]: > 7.00; pIC50 [2, 9]: 4.30 to 5.00
20 | O=C(c1cccs1)c1cnn2c(-c3cccc(-c4nnn(CCN5CCCCC5)n4)c3)ccnc12 [Example 512, (7-{3-[2-(2-Piperidin-1-ylethyl)-2H-tetraazol-5-yl]phenyl}pyrazolo[1,5-a]pyrimidin-3-yl)(thien-2-yl)methanone] | 6.00 to 7.00 | 5.00 to 6.00 | –
21 | C/C=C/CNc1cccc(-c2ccnc3c(C(=O)c4cccs4)cnn23)c1 [Example 370, (7-{3-[(2E)-But-2-enylamino]phenyl}pyrazolo[1,5-a]pyrimidin-3-yl)(thien-2-yl)methanone] | > 7.00 | > 6.00 | –
22 | CN(C)c1cccc(-c2cccc(-c3ccnc4c(C(=O)c5cccs5)cnn34)c2)c1 [Example 453, {7-[3′-(Dimethylamino)-1,1′-biphenyl-3-yl]pyrazolo[1,5-a]pyrimidin-3-yl}(thien-2-yl)methanone] | 6.00 to 7.00 | 5.00 to 6.00 | –
23 | CC(C)CC(=O)Nc1cccc(-c2ccnc3c(-c4ccc5[nH]ccc5c4)cnn23)c1 [Example 466, N-{3-[3-(1H-Indol-5-yl)pyrazolo[1,5-a]pyrimidin-7-yl]phenyl}-3-methylbutanamide] | > 7.00 | 5.00 to 6.00 | –
24 | O=Cc1ccc(-c2cccc(-c3ccnc4c(C(=O)c5cccs5)cnn34)c2)cc1 [Example 458, 3′-[3-(Thien-2-ylcarbonyl)pyrazolo[1,5-a]pyrimidin-7-yl]-1,1′-biphenyl-4-carbaldehyde] | 6.00 to 7.00 | 5.00 to 6.00 | –
25 | O=C(c1cccs1)c1cnn2c(-c3cccc(NCc4ccccc4Cl)c3)ccnc12 [Example 368, (7-{3-[(2-Chlorobenzyl)amino]phenyl}pyrazolo[1,5-a]pyrimidin-3-yl)(thien-2-yl)methanone] | 6.00 to 7.00 | 5.00 to 6.00 | –
26 | O=C(Cc1cccnc1)Nc1cccc(-c2ccnc3c(C(=O)c4cccs4)cnn23)c1 [Example 439, 2-Pyridin-3-yl-N-{3-[3-(thien-2-ylcarbonyl)pyrazolo[1,5-a]pyrimidin-7-yl]phenyl}acetamide] | > 7.00 | 5.00 to 6.00 | –
27 | CC(C)OC(=O)Nc1ccc(Cl)c(-c2ccnc3c(C(=O)c4cccs4)cnn23)c1 [Example 335, Isopropyl 4-chloro-3-[3-(thien-2-ylcarbonyl)pyrazolo[1,5-a]pyrimidin-7-yl]phenylcarbamate] | – | – | pIC50 ([1]; Homo sapiens, LoVo, 96 h): 6.00 to 7.00; IC50 [2, 5]: < 1 µM
28 | Cc1cc(C)cc(-c2cnn3c(-c4cccc(-c5nnn(CC6CCC6)n5)c4)ccnc23)c1 [Example 492, 7-{3-[2-(Cyclobutylmethyl)-2H-tetraazol-5-yl]phenyl}-3-(3,5-dimethylphenyl)pyrazolo[1,5-a]pyrimidine] | 6.00 to 7.00 | 5.00 to 6.00 | –
29 | C/C=C(\C)CNc1cccc(-c2ccnc3c(C(=O)c4cccs4)cnn23)c1 [Example 431, [7-(3-{[(2E)-2-Methylbut-2-enyl]amino}phenyl)pyrazolo[1,5-a]pyrimidin-3-yl] (thien-2-yl)methanone] | 6.00 to 7.00 | 5.00 to 6.00 | –
30 | CC(C)CC(=O)Nc1cccc(-c2ccnc3c(-c4cccc(Cl)c4)cnn23)c1 [Example 471, N-{3-[3-(3-Chlorophenyl)pyrazolo[1,5-a]pyrimidin-7-yl]phenyl}-3-methylbutanamide] | 4.70 to 6.00 | 4.30 to 5.00 | –
31 | O=C(c1cccs1)c1cnn2c(-c3cccc(NCc4ccccc4)c3)ccnc12 [Example 349, {7-[3-(Benzylamino)phenyl]pyrazolo[1,5-a]pyrimidin-3-yl}(thien-2-yl)methanone] | 6.00 to 7.00 | 5.00 to 6.00 | –
